# From Sander's compilation of Henry's law constants (doi:10.1136/oem.36.3.231)
# Experiment: Henry solubility constant Hcp at 310 K (mol/(m3 Pa))
# Details: reference: Sato and Nakajima (1979a)
row,SMILES,Henry solubility constant Hcp at 310 K
1,"Cc1ccccc1C [1,2-dimethylbenzene]",0.001
2,"Cc1cccc(C)c1 [1,3-dimethylbenzene]",0.00064
3,"Cc1ccc(C)cc1 [1,4-dimethylbenzene]",0.00061
4,CCCC(C)=O [2-pentanone],0.064
5,C=CCc1ccccc1 [2-propenylbenzene],0.0014
6,CC(=O)CC(C)C [4-methyl-2-pentanone],0.031
7,Cc1ccccc1 [methylbenzene],0.00086
8,CC(C)=O [propanone],0.15
9,CCCc1ccccc1 [propylbenzene],0.0005

# Second part, the compound after the results:
row,Henry solubility constant Hcp at 310 K,SMILES
1,0.037,CCCCCC(C)=O [2-heptanone]
2,0.043,CCCCC(C)=O [2-hexanone]
3,0.07,CCC(=O)CC [3-pentanone]
4,0.00056,CC(C)c1ccccc1 [(2-propyl)-benzene]
5,0.0011,c1ccccc1 [benzene]
6,0.0018,C=Cc1ccccc1 [ethenylbenzene]
7,0.00066,CCc1ccccc1 [ethylbenzene]
